# From PubChem BioAssay (NCI)
#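 Each compound was tested at five concentrations against cells in 96-well plates for 48 hours. Here, GI50 denotes the concentration required for 50% inhibition of growth. TGI denotes the concentration required for complete inhibition of growth.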
# Legend:
# Assay in all cases: inhibition of tumour cell growth, NCI panel, 48 h
# 786-0 renal = test system: 786-0 renal
# A498 renal = test system: A498 renal
# A549 NSCLC = test system: A549 NSCLC
# ACHN renal = test system: ACHN renal
# BT-549 breast = test system: BT-549 breast
# CAKI-1 renal = test system: CAKI-1 renal
# CCRF-CEM leukemia = test system: CCRF-CEM leukemia
# COLO 205 colon = test system: COLO 205 colon
# DU-145 prostate = test system: DU-145 prostate
# EKVX NSCLC = test system: EKVX NSCLC
# HCC-2998 colon = test system: HCC-2998 colon
# HCT-116 colon = test system: HCT-116 colon
# HCT-15 colon = test system: HCT-15 colon
# HL-60(TB) leukemia = test system: HL-60(TB) leukemia
# HOP-62 NSCLC = test system: HOP-62 NSCLC
# HOP-92 NSCLC = test system: HOP-92 NSCLC
# HS 578T breast = test system: HS 578T breast
# HT29 colon = test system: HT29 colon
# IGROV1 ovarian = test system: IGROV1 ovarian
# K-562 leukemia = test system: K-562 leukemia
# KM12 colon = test system: KM12 colon
# LOX IMVI melanoma = test system: LOX IMVI melanoma
# M14 melanoma = test system: M14 melanoma
# MALME-3M melanoma = test system: MALME-3M melanoma
# MCF7 breast = test system: MCF7 breast
# MDA-MB-435 = test system: MDA-MB-435
# MDA-MB-468 breast = test system: MDA-MB-468 breast
# MOLT-4 leukemia = test system: MOLT-4 leukemia
# NCI-H226 lung = test system: NCI-H226 lung
# NCI-H23 lung = test system: NCI-H23 lung
# NCI-H460 lung = test system: NCI-H460 lung
# NCI-H522 lung = test system: NCI-H522 lung
# NCI/ADR-RES ovarian = test system: NCI/ADR-RES ovarian
# OVCAR-3 ovarian = test system: OVCAR-3 ovarian
# OVCAR-4 ovarian = test system: OVCAR-4 ovarian
# OVCAR-5 ovarian = test system: OVCAR-5 ovarian
# OVCAR-8 ovarian = test system: OVCAR-8 ovarian
# PC-3 prostate = test system: PC-3 prostate
# RPMI-8226 leukemia = test system: RPMI-8226 leukemia
# RXF 393 renal = test system: RXF 393 renal
# SF-268 CNS = test system: SF-268 CNS
# SF-295 CNS = test system: SF-295 CNS
# SF-539 CNS = test system: SF-539 CNS
# SK-MEL-28 melanoma = test system: SK-MEL-28 melanoma
# SK-MEL-5 melanoma = test system: SK-MEL-5 melanoma
# SK-OV-3 ovarian = test system: SK-OV-3 ovarian
# SN12C renal = test system: SN12C renal
# SNB-19 CNS = test system: SNB-19 CNS
# SR leukemia = test system: SR leukemia
# SW-620 colon = test system: SW-620 colon
# T-47D breast = test system: T-47D breast
# TK-10 renal = test system: TK-10 renal
# U251 CNS = test system: U251 CNS
# UACC-257 melanoma = test system: UACC-257 melanoma
# UACC-62 melanoma = test system: UACC-62 melanoma
smiles,measurement,setting,value
O=C(Nc1nc2ccc([N+](=O)[O-])cc2s1)Nc1ccccc1I,GI50,786-0 renal,3.61 µM
same,TGI,786-0 renal,32.1 µM
same,GI50,A498 renal,2.57 µM
same,TGI,A498 renal,8.12 µM
same,GI50,A549 NSCLC,3.81 µM
same,TGI,A549 NSCLC,19.2 µM
same,GI50,ACHN renal,3.58 µM
same,TGI,ACHN renal,15.6 µM
same,GI50,BT-549 breast,2.86 µM
same,TGI,BT-549 breast,10.5 µM
same,GI50,CAKI-1 renal,3.46 µM
same,TGI,CAKI-1 renal,> 100 µM
same,GI50,CCRF-CEM leukemia,3.57 µM
same,TGI,CCRF-CEM leukemia,52 µM
same,GI50,COLO 205 colon,4.89 µM
same,TGI,COLO 205 colon,20 µM
same,GI50,DU-145 prostate,4.25 µM
same,TGI,DU-145 prostate,> 100 µM
same,GI50,EKVX NSCLC,3.05 µM
same,TGI,EKVX NSCLC,12.3 µM
same,GI50,HCC-2998 colon,4.12 µM
same,TGI,HCC-2998 colon,23.4 µM
same,GI50,HCT-116 colon,3.46 µM
same,TGI,HCT-116 colon,12.6 µM
same,GI50,HCT-15 colon,3.4 µM
same,TGI,HCT-15 colon,14.6 µM
same,GI50,HL-60(TB) leukemia,2.15 µM
same,TGI,HL-60(TB) leukemia,7.92 µM
same,GI50,HOP-62 NSCLC,6.16 µM
same,TGI,HOP-62 NSCLC,21.4 µM
same,GI50,HOP-92 NSCLC,2.3 µM
same,TGI,HOP-92 NSCLC,6.95 µM
same,GI50,HS 578T breast,3.23 µM
same,TGI,HS 578T breast,> 100 µM
same,GI50,HT29 colon,5.76 µM
same,TGI,HT29 colon,20 µM
same,GI50,IGROV1 ovarian,3.97 µM
same,TGI,IGROV1 ovarian,> 100 µM
same,GI50,K-562 leukemia,3.23 µM
same,TGI,K-562 leukemia,13.9 µM
same,GI50,KM12 colon,3.82 µM
same,TGI,KM12 colon,> 100 µM
same,GI50,LOX IMVI melanoma,3.67 µM
same,TGI,LOX IMVI melanoma,15.1 µM
same,GI50,M14 melanoma,4.28 µM
same,TGI,M14 melanoma,89.8 µM
same,GI50,MALME-3M melanoma,2.37 µM
same,TGI,MALME-3M melanoma,8.4 µM
same,GI50,MCF7 breast,2.91 µM
same,TGI,MCF7 breast,11 µM
same,GI50,MDA-MB-435,3.78 µM
same,TGI,MDA-MB-435,> 100 µM
same,GI50,MDA-MB-468 breast,2.41 µM
same,TGI,MDA-MB-468 breast,7.79 µM
same,GI50,MOLT-4 leukemia,2.92 µM
same,TGI,MOLT-4 leukemia,8.41 µM
same,GI50,NCI-H226 lung,3.77 µM
same,TGI,NCI-H226 lung,19.4 µM
same,GI50,NCI-H23 lung,2.76 µM
same,TGI,NCI-H23 lung,8.15 µM
same,GI50,NCI-H460 lung,3.55 µM
same,TGI,NCI-H460 lung,16.4 µM
same,GI50,NCI-H522 lung,2.73 µM
same,TGI,NCI-H522 lung,9.1 µM
same,GI50,NCI/ADR-RES ovarian,3.12 µM
same,TGI,NCI/ADR-RES ovarian,11.8 µM
same,GI50,OVCAR-3 ovarian,3.11 µM
same,TGI,OVCAR-3 ovarian,10.7 µM
same,GI50,OVCAR-4 ovarian,3.94 µM
same,TGI,OVCAR-4 ovarian,> 100 µM
same,GI50,OVCAR-5 ovarian,9.78 µM
same,TGI,OVCAR-5 ovarian,86.6 µM
same,GI50,OVCAR-8 ovarian,4.58 µM
same,TGI,OVCAR-8 ovarian,20.6 µM
same,GI50,PC-3 prostate,3.43 µM
same,TGI,PC-3 prostate,84.2 µM
same,GI50,RPMI-8226 leukemia,2.08 µM
same,TGI,RPMI-8226 leukemia,5.74 µM
same,GI50,RXF 393 renal,4.18 µM
same,TGI,RXF 393 renal,24.2 µM
same,GI50,SF-268 CNS,3.78 µM
same,TGI,SF-268 CNS,> 100 µM
same,GI50,SF-295 CNS,3.34 µM
same,TGI,SF-295 CNS,14.8 µM
same,GI50,SF-539 CNS,3.45 µM
same,TGI,SF-539 CNS,12.9 µM
same,GI50,SK-MEL-28 melanoma,3.4 µM
same,TGI,SK-MEL-28 melanoma,39 µM
same,GI50,SK-MEL-5 melanoma,1.86 µM
same,TGI,SK-MEL-5 melanoma,3.86 µM
same,GI50,SK-OV-3 ovarian,2.67 µM
same,TGI,SK-OV-3 ovarian,9.38 µM
same,GI50,SN12C renal,3.1 µM
same,TGI,SN12C renal,12.2 µM
same,GI50,SNB-19 CNS,3.32 µM
same,TGI,SNB-19 CNS,19 µM
same,GI50,SR leukemia,2.06 µM
same,TGI,SR leukemia,5.03 µM
same,GI50,SW-620 colon,4.35 µM
same,TGI,SW-620 colon,31.7 µM
same,GI50,T-47D breast,2.57 µM
same,TGI,T-47D breast,8.98 µM
same,GI50,TK-10 renal,3.43 µM
same,TGI,TK-10 renal,24.3 µM
same,GI50,U251 CNS,3.3 µM
same,TGI,U251 CNS,12.7 µM
same,GI50,UACC-257 melanoma,3.17 µM
same,TGI,UACC-257 melanoma,16 µM
same,GI50,UACC-62 melanoma,3.31 µM
same,TGI,UACC-62 melanoma,37.1 µM
